Test results reported in the Kinase Knowledgebase extract (Sharma et al. 2016).

The compounds below were run against PIK3CG (human) (UniProt P48736) (assay: Assessment of PIK3CG Kinase Activity).
PIK3CG (human), sequence (P48736 whole entry, looked up): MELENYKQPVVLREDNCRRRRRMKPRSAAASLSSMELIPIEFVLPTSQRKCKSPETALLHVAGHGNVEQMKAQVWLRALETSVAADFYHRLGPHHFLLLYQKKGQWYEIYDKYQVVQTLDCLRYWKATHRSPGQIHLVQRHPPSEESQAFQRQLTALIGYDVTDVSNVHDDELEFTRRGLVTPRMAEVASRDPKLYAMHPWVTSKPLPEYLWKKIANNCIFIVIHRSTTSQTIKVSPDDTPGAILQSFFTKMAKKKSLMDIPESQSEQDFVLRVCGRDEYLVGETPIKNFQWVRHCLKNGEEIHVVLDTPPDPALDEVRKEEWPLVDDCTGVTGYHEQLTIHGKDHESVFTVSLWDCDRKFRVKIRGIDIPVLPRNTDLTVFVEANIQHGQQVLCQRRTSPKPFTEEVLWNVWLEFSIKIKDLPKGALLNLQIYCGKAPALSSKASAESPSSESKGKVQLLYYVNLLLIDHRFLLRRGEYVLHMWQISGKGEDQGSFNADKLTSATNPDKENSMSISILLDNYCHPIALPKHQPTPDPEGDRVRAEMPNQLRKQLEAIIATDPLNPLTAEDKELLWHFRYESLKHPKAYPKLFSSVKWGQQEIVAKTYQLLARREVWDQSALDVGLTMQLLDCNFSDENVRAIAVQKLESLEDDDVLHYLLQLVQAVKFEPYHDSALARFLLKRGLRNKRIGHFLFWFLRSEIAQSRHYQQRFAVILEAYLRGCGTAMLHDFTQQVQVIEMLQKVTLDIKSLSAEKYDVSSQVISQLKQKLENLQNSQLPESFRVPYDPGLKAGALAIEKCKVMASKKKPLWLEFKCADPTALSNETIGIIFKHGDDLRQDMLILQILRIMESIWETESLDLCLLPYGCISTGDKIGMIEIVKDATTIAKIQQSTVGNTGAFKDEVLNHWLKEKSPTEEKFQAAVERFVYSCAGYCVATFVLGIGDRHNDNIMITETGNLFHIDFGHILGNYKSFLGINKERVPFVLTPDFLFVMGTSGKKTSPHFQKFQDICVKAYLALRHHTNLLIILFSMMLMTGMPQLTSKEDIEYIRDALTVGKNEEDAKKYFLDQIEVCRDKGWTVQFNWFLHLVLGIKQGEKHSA

IC50, < 0.8 µM:
COc1ccc(CCNC(=O)Nc2nc3c(s2)-c2nc(-c4ccccc4Cl)ncc2CC3)cc1OC, CC(C)(C)CNC(=O)Nc1nc2c(s1)-c1nc(-c3ccccc3Cl)ncc1CC2, O=C(NCc1cccc(N2CCCCC2)c1)Nc1nc2c(s1)-c1nc(-c3ccccc3Cl)ncc1CC2, COCCNC(=O)Nc1nc2c(s1)-c1nc(-c3ccccc3Cl)ncc1CC2, CCOCCNC(=O)Nc1nc2c(s1)-c1nc(-c3ccccc3Cl)ncc1CC2, Cc1c[nH]c(CCNC(=O)Nc2nc3c(s2)-c2nc(-c4ccccc4Cl)ncc2CC3)n1, O=C(NCc1cccc(N2CCNC2=O)c1)Nc1nc2c(s1)-c1nc(-c3ccccc3Br)ncc1CC2, CC(C)NC(=O)c1cccc(CNC(=O)Nc2nc3c(s2)-c2nc(-c4ccccc4Cl)ncc2CC3)c1, N#Cc1ccc(CNC(=O)Nc2nc3c(s2)-c2nc(-c4ccccc4Cl)ncc2CC3)s1, CC(C)NC(=O)Nc1cccc(CNC(=O)Nc2nc3c(s2)-c2nc(-c4ccccc4Cl)ncc2CC3)c1, CCc1csc(CCNC(=O)Nc2nc3c(s2)-c2nc(-c4ccccc4Br)ncc2CC3)n1, CC(C)(C)OC(=O)CC1(O)CCN(C(=O)Nc2nc3c(s2)-c2nc(-c4ccccc4Cl)ncc2CC3)CC1, CCn1ccc(CNC(=O)Nc2nc3c(s2)-c2nc(-c4ccccc4Cl)ncc2CC3)n1, CCn1cnc(CCNC(=O)Nc2nc3c(s2)-c2nc(-c4ccccc4Br)ncc2CC3)c1, O=C(NCc1cc(C2CC2)n[nH]1)Nc1nc2c(s1)-c1nc(-c3ccccc3C(F)(F)F)ncc1CC2, CN(C)C(=O)Nc1nc2c(s1)-c1nc(C(C)(C)C)ncc1CC2, Cc1cccc(CNC(=O)Nc2nc3c(s2)-c2nc(-c4ccccc4Cl)ncc2CC3)c1, O=C(Nc1nc2c(s1)-c1nc(-c3ccccc3Cl)ncc1CC2)N1CC[C@H](NC(=O)N2CCCC2)C1, CCc1csc(CCNC(=O)Nc2nc3c(s2)-c2nc(-c4ccccc4F)ncc2CC3)n1, CC(C)OCCNC(=O)Nc1nc2c(s1)-c1nc(-c3ccccc3Cl)ncc1CC2, CN(C)CCN(C)C(=O)Nc1nc2c(s1)-c1nc(-c3ccccc3Cl)ncc1CC2, Cn1cc(CNC(=O)Nc2nc3c(s2)-c2nc(-c4ccccc4Cl)ncc2CC3)cn1, O=C(Nc1nc2c(s1)-c1nc(-c3ccccc3Cl)ncc1CC2)N1CCC(n2cnc3ccccc32)CC1, O=C(Nc1nc2c(s1)-c1nc(-c3ccccc3Cl)ncc1CC2)NC1CC1, CCN1CCC[C@@H]1CNC(=O)Nc1nc2c(s1)-c1nc(-c3ccccc3Cl)ncc1CC2, O=C(Nc1nc2c(s1)-c1nc(-c3ccccc3Cl)ncc1CC2)N1CCC(N2Cc3ccccc3NC2=O)C1 (stereo not drawn), CC(=O)NC1CCN(C(=O)Nc2nc3c(s2)-c2nc(-c4ccccc4Cl)ncc2CC3)C1 (stereo not drawn), O=C(Nc1nc2c(s1)-c1nc(-c3ccccc3Cl)ncc1CC2)N1CC[C@H](NC(=O)C(F)(F)F)C1, COCCC(=O)N[C@H]1CCN(C(=O)Nc2nc3c(s2)-c2nc(-c4ccccc4Cl)ncc2CC3)C1, O=C(NCc1ccn[nH]1)Nc1nc2c(s1)-c1nc(-c3ccccc3Cl)ncc1CC2, O=C(NCc1cccc(NC(=O)C2CC2)c1)Nc1nc2c(s1)-c1nc(-c3ccccc3Cl)ncc1CC2, CNC(=O)CCNC(=O)Nc1nc2c(s1)-c1nc(-c3ccccc3Cl)ncc1CC2, CN1CCC(CNC(=O)Nc2nc3c(s2)-c2nc(-c4ccccc4Cl)ncc2CC3)CC1, O=C(Nc1nc2c(s1)-c1nc(-c3cccc(F)c3Cl)ncc1CC2)NC1CC1, O=C(NCc1cc(C2CC2)n[nH]1)Nc1nc2c(s1)-c1nc(-c3cccc(F)c3Cl)ncc1CC2, CCc1cnc(CCNC(=O)Nc2nc3c(s2)-c2nc(-c4ccccc4Cl)ncc2CC3)o1, O=C(NCc1cccc(C(F)(F)F)c1)Nc1nc2c(s1)-c1nc(-c3ccccc3Cl)ncc1CC2, CS(=O)(=O)c1cccc(CNC(=O)Nc2nc3c(s2)-c2nc(-c4ccccc4Cl)ncc2CC3)c1, Cc1ccc(CN2CC(CNC(=O)Nc3nc4c(s3)-c3nc(-c5ccccc5Cl)ncc3CC4)CC2=O)cc1 (stereo not drawn), O=C(NCc1cccc(N2CCOC2=O)c1)Nc1nc2c(s1)-c1nc(-c3ccccc3Cl)ncc1CC2, NC(=O)Nc1nc2c(s1)-c1nc(-c3ccccc3C(F)(F)F)ncc1CC2, CN(C)C(=O)Nc1nc2c(s1)-c1nc(-c3ccccc3Cl)ncc1CC2, CCNC(=O)Nc1nc2c(s1)-c1nc(-c3cccc(F)c3Cl)ncc1CC2, CC(C)c1cnc(CCNC(=O)Nc2nc3c(s2)-c2nc(-c4ccccc4Cl)ncc2CC3)o1, O=C(NC[C@@H]1CCCN1)Nc1nc2c(s1)-c1nc(-c3ccccc3Cl)ncc1CC2, Nc1c(Br)cc(OCC2CCN(C(=O)Nc3nc4c(s3)-c3nc(-c5ccccc5Cl)ncc3CC4)C2)cc1Br (stereo not drawn), Cn1nc(CNC(=O)Nc2nc3c(s2)-c2nc(-c4ccccc4Cl)ncc2CC3)cc1O, O=C(NCC1CCCCC1)Nc1nc2c(s1)-c1nc(-c3ccccc3Cl)ncc1CC2, CN(C(=O)OC(C)(C)C)C1CCN(C(=O)Nc2nc3c(s2)-c2nc(-c4ccccc4Cl)ncc2CC3)C1 (stereo not drawn), O=C(NCC1CCOCC1)Nc1nc2c(s1)-c1nc(-c3ccccc3Cl)ncc1CC2, O=C(Nc1nc2c(s1)-c1nc(-c3ccccc3Cl)ncc1CC2)Nc1ccccc1CN1CCNC1=O, CN(C)CCNC(=O)Nc1nc2c(s1)-c1nc(-c3ccccc3Cl)ncc1CC2, CC(C)c1nnc(CCNC(=O)Nc2nc3c(s2)-c2nc(-c4ccccc4Br)ncc2CC3)o1, CCc1csc(CCNC(=O)Nc2nc3c(s2)-c2nc(-c4ccccc4Cl)ncc2CC3)n1, CNC(=O)Nc1nc2c(s1)-c1nc(-c3ccccc3F)ncc1CC2, CCc1nnc(CCNC(=O)Nc2nc3c(s2)-c2nc(-c4ccccc4Cl)ncc2CC3)o1, O=C(NCc1cccc(OC(F)(F)F)c1)Nc1nc2c(s1)-c1nc(-c3ccccc3Cl)ncc1CC2, CNC(=O)Nc1cccc(CNC(=O)Nc2nc3c(s2)-c2nc(-c4ccccc4Cl)ncc2CC3)c1, O=C(NCCC(=O)N1CCOCC1)Nc1nc2c(s1)-c1nc(-c3ccccc3Cl)ncc1CC2, CCc1cnc(CCNC(=O)Nc2nc3c(s2)-c2nc(C(C)(C)C)ncc2CC3)o1, O=C(NCCc1ccccn1)Nc1nc2c(s1)-c1nc(-c3ccccc3Cl)ncc1CC2, CS(=O)(=O)N[C@H]1CCN(C(=O)Nc2nc3c(s2)-c2nc(-c4ccccc4Cl)ncc2CC3)C1, CCc1csc(CCNC(=O)Nc2nc3c(s2)-c2nc(-c4ccccc4C(F)(F)F)ncc2CC3)n1, O=C(NCCC(=O)N1CCCC1)Nc1nc2c(s1)-c1nc(-c3ccccc3Cl)ncc1CC2, O=C(NCCN1CCNC1=O)Nc1nc2c(s1)-c1nc(-c3ccccc3Cl)ncc1CC2, CC(C)(C)c1cc(CNC(=O)Nc2nc3c(s2)-c2nc(-c4ccccc4Cl)ncc2CC3)[nH]n1, COCCNC(=O)CCNC(=O)Nc1nc2c(s1)-c1nc(-c3ccccc3Cl)ncc1CC2, CC(C)NC(=O)Nc1nc2c(s1)-c1nc(-c3cccc(F)c3Cl)ncc1CC2, O=C(Nc1nc2c(s1)-c1nc(-c3ccccc3Cl)ncc1CC2)N1CCCC(c2ccccc2O)C1 (stereo not drawn), CC(C)(C)OC(=O)N[C@@H]1CCN(C(=O)Nc2nc3c(s2)-c2nc(-c4ccccc4Cl)ncc2CC3)C1, O=C(NCc1cccs1)Nc1nc2c(s1)-c1nc(-c3ccccc3Cl)ncc1CC2, O=C(NC[C@@H]1CCCN1C(=O)OCc1ccccc1)Nc1nc2c(s1)-c1nc(-c3ccccc3Cl)ncc1CC2, CN(C)C(=O)c1cccc(CNC(=O)Nc2nc3c(s2)-c2nc(-c4ccccc4Cl)ncc2CC3)c1, O=C(Nc1nc2c(s1)-c1nc(-c3ccccc3Cl)ncc1CC2)NC1CCC1, CC(C)CNC(=O)N[C@H]1CCN(C(=O)Nc2nc3c(s2)-c2nc(-c4ccccc4Cl)ncc2CC3)C1, CNC(=O)c1cccc(CNC(=O)Nc2nc3c(s2)-c2nc(-c4ccccc4Cl)ncc2CC3)c1, COC(=O)N[C@H]1CCN(C(=O)Nc2nc3c(s2)-c2nc(-c4ccccc4Cl)ncc2CC3)C1, CC(C)N(C)C(=O)N[C@H]1CCN(C(=O)Nc2nc3c(s2)-c2nc(-c4ccccc4Cl)ncc2CC3)C1, CN(C)c1cccc(CNC(=O)Nc2nc3c(s2)-c2nc(-c4ccccc4Cl)ncc2CC3)c1, CC(C)(C)OC(=O)NCC1CCCN1C(=O)Nc1nc2c(s1)-c1nc(-c3ccccc3Cl)ncc1CC2 (stereo not drawn), CC(C)(C)NC(=O)CCNC(=O)Nc1nc2c(s1)-c1nc(-c3ccccc3Cl)ncc1CC2, O=C(NCc1cccc(C(=O)N2CCCC2)c1)Nc1nc2c(s1)-c1nc(-c3ccccc3Cl)ncc1CC2, CCNC(=O)Nc1nc2c(s1)-c1nc(-c3ccccc3Cl)ncc1CC2
